Assays:
[1] = Growth inhibition of human gastric cancer cells after 72 hrs by sulforhodamine B assay; type: functional; conditions: Cancer cell lines, Stomach, pooled result: one value given for 3 cell lines, strains, targets or settings
[2] = target: DNA topoisomerase 2-alpha (Mus musculus) (UniProt Q01320); test: Ratio of compound to etoposide on inhibitory effect of mouse DNA topoisomerase 2
Cancer cell lines [3] = test: Ratio of compound GI50 to etoposide GI50 for human gastric cancer cells; type: functional, Stomach
Cancer cell lines [4] = test: Ratio of compound GI50 to etoposide GI50 for human colon cancer cells; type: functional
Cancer cell lines [5] = test: Ratio of compound GI50 to etoposide GI50 for human lung cancer cells; type: functional

Chain of DNA topoisomerase 2-alpha (Mus musculus) (Q01320 whole entry): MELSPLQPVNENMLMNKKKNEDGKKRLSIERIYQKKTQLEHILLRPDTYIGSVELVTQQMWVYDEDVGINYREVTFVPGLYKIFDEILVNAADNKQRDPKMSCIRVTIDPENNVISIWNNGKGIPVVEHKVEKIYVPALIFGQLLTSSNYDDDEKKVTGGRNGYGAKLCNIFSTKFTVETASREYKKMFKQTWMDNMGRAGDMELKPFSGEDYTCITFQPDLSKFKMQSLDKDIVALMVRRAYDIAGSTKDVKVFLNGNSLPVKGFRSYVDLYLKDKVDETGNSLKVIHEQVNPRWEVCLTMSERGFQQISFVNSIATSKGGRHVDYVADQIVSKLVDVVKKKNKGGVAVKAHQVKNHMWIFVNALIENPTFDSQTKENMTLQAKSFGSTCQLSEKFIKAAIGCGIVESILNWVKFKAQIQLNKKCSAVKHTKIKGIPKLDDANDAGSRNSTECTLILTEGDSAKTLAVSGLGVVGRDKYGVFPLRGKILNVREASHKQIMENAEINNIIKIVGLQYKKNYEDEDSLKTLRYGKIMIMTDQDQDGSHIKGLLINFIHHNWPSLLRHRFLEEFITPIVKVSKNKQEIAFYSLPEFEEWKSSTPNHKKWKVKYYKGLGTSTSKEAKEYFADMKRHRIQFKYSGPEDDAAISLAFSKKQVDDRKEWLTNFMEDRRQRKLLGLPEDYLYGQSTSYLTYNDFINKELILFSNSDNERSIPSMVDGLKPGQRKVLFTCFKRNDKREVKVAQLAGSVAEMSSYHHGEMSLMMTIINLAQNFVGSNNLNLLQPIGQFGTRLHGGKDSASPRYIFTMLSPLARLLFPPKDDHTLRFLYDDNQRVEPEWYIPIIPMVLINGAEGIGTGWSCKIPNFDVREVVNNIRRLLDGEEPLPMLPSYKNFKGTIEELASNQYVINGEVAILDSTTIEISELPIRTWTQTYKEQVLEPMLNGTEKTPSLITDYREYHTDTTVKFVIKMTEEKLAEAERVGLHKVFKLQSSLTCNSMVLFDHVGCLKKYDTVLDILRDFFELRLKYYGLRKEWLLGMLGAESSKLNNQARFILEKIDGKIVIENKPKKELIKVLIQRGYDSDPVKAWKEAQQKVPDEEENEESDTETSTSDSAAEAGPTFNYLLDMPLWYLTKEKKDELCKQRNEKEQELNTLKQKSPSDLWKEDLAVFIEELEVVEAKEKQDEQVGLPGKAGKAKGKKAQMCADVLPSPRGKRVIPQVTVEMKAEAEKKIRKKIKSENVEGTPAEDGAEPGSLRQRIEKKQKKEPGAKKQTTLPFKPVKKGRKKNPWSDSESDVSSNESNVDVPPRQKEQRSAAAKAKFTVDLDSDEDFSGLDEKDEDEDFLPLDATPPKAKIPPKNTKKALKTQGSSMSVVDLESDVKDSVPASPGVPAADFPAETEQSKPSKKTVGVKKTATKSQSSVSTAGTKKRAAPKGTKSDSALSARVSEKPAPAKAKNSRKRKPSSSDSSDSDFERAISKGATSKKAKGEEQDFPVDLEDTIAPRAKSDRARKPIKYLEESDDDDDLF

**Q.** For `O=C(O)c1ccc2[nH]c(CNc3ccncc3)nc2c1`, which GI50 [1] is on record?
**A.** 17 µM

**Q.** For `O=C(O)c1ccc2[nH]c(CNc3ccccn3)nc2c1`, which GI50 [1] is on record?
**A.** 22 µM

**Q.** Which GI50 [1] does the source give for `O=C(O)c1ccc2[nH]c(CNc3nc4ccccc4[nH]3)nc2c1` here?
**A.** > 100 µM

**Q.** Which GI50 [1] does the source give for `COc1cc([C@@H]2c3cc4c(cc3[C@@H](O[C@@H]3O[C@@H]5CO[C@@H](C)O[C@H]5[C@H](O)[C@H]3O)[C@H]3COC(=O)[C@H]23)OCO4)cc(OC)c1O` [ETOPOSIDE] here?
**A.** 1.3 µM

**Q.** Which results are given for `O=C(O)c1ccc2[nH]c(C[n+]3ccccc3)nc2c1.[Cl-]`?
**A.** Ratio [2]: 10; RatioGI50 (Cancer cell lines [3]): 7; RatioGI50 (Cancer cell lines [4]): 7; RatioGI50 (Cancer cell lines [5]): 7; GI50 [1]: 0.095 µM

**Q.** For `O=C(O)c1ccc2[nH]c(CCl)nc2c1`, which GI50 [1] is on record?
**A.** > 100 µM

**Q.** Which GI50 [1] does the source give for `O=C(O)c1ccc2[nH]c(CNc3nccs3)nc2c1` here?
**A.** 47 µM

**Q.** With `CCc1c2c(nc3ccc(O)cc13)-c1cc3c(c(=O)n1C2)COC(=O)[C@]3(O)CC` [7-ETHYL-10-HYDROXYCAMPTOTHECIN] as the compound, how does the GI50 [1] read?
**A.** 0.066 µM

**Q.** For `COc1cccc2c1C(=O)c1c(O)c3c(c(O)c1C2=O)C[C@@](O)(C(=O)CO)C[C@@H]3O[C@H]1C[C@H](N)[C@H](O)[C@H](C)O1` [DOXORUBICIN], which GI50 [1] is on record?
**A.** 0.065 µM
